# Data as given in patent US10745731B2, “Recombinant production method” (Hoffmann-La Roche Inc., priority 2015, dated 2020).
# Like-named read-outs stand apart in the source and are kept apart here.
# Key:
# HEK293F cells [1] = assay type: cell-based
# Protocol: (§1) To determine cell viability and viable cell density (VCD) 1 mL cultivation medium (cell suspension) was transferred into a Cedex low fouling sample cup. The cup was placed into a Vicell instrument (Beckman Coulter). The instrument mixes cells with trypan blue to stain dead cells. After analysis of 50 images VCD was calculated and viability was determined by calculation of the percentage of viable cell number in relation to the total cell number.
# HDAC [2] = experiment: in situ HDAC activity fluorimetric assay in HEK293F cells; assay type: cell-based, human; conditions: for HDACi: 3 mM, N=3, FIG. 3A; for HDAC inhibition: yes/no, summary table
# Protocol: HDAC activity was determined by the in situ HDAC activity fluorimetric assay kit (Biovision) according to the manufacturer's instructions. HEK293F cells were suspended in F17 medium (Life Technologies) to a cell density of 5*10^5 cells/mL. One hundred micro liter culture was pipetted per well into a black ELISA plate. The plate was centrifuged at 1000 g for 5 min. The supernatant was discarded and the cells were resuspended in a reaction mix containing F17 medium, 1% HDAC substrate and the molecule tested towards HDAC inhibitory activity. 10 μM Trichostatin A was used as a positive control and the basal HDAC activity was determined by re-suspending the cells in F17 medium with 1% HDAC substrate. Furthermore, cells were resuspended in F17 medium without HDAC substrate as a background control. The HDAC activity assay was performed in triplicates for every sample as well as every control. The 96-well plate was incubated at 36.5° C., 80% humidity and 7% CO2 for one hour. During this time, the active HDACs deacetylate the HDAC substrate what releases the quenched fluorescent signal of the substrate. After incubation the fluorescent signal was analyzed by the infinite fluorescence plate reader (TECAN). The fluorescence signal of the samples and controls was normalized by subtracting the fluorescence signal of the background control. It is assumed that the fluorescent signal arising from deacetylation of the substrate directly correlates with HDAC activity.
# HEK293F cells [3] = experiment: Transient gene expression in HEK293F cells: cell specific productivity of the expressed antibody; assay type: cell-based, human; conditions: for cell specific productivity with BAY11-7082 addition compared to the single treatment: 15 μM BAY11-7082 added 24 h after transfection; for specific productivity after 96 hours: none 2.01; for Mean cell specific productivity: conc. 3 mM, untreated 1.71
# Protocol: HEK293F cells were cultivated in F17 medium (Life Technologies) in shaker flasks at 36.5° C., 7.0% CO2 and 80% humidity in a shaker incubator (Kuhner, Mytron). Cells were split every three to four days and were cultivated no longer than five weeks. To avoid overgrowth and to keep them in the exponential phase of growth, viable cell densities (VCD) never exceeded 60*10^5 cells/mL.
# (§2) Transient gene expression is a 5-7 days lasting procedure. The standard operating procedure of this expression system is applicable to shaker flasks with various volumes of cell culture ranging from 80 mL to 2 L. First, half of the cell culture volume is seeded at a viable cell density (VCD) of 8*10^5 cells/mL. After two days of cultivation, cells are split to a VCD of about 12*10^5 cells/mL. On the next day, cells are transfected with a polyethylene imine (PEI)-based transfection reagent at a VCD between 20*10^5 cells/mL and 25*10^5 cells/mL. 3 hours after transfection, the production enhancer (if any) is added. 24 h after transfection, a feeding solution and a glucose bolus is supplemented to avoid the limitation of nutrients. Depending on cell viability, which should not decrease below 50%, the supernatant is harvested five to seven days post transfection and subjected to antibody purification.
# (§3) To compare transient gene expression rates always the same plasmids encoding for one distinct antibody were co-transfected.
# (§4) To co-transfect two plasmids equimolarily, the ratio of the base pair number of one plasmid to the total base pair number was calculated and multiplied with the total amount of DNA (0.5 mg/L). Plasmid one has a size of 10530 bp and plasmid two has a size of 7184 bp and were solved in water to a final concentration of 1 mg/mL. For transfection of one liter cell culture, 297 μL of plasmid one and 203 μl of plasmid two were dissolved in 40 mL phosphate buffered saline (PBS) at room temperature. 1.25 mL JetPEI® solution was added and the solution was mixed well. After incubation for 10-15 min., the mixture was added to the cells. The cells were transfected in a batch containing the whole cell culture necessary for every experiment to avoid variance arising from different transfection efficiencies.
# (§5) 80 mL of the transfected cell culture batch was added to a 125 ml shaker flask. For every experiment, two or three 125 mL shaker flasks were used as biological replicates and treated the same way. Three hours after transfection, cells were split into 125 mL shaker flasks and the cellular treatments with small molecules or ligands were started. Basal protein expression was determined by untreated control samples. To compare samples with the standard operating procedure, cells were also treated with VPA to a final concentration of 4 mM or 3 mM. VPA and its analogues were dissolved in double distilled water. […] Tumor necrosis factor (TNF) alpha was reconstituted with PBS supplemented with 0.1% BSA. Flagellin was dissolved in sterile double distilled water. The applied molecules were not added to the cultivation directly, but diluted in 16 mL medium pre-warmed to 36.5° C. and added to the cultivation thereafter.
# (§6) 24 h after transfection a feeding solution at 36.5° C. and 3 mg/mL glucose were added to the cultivation.
# as §1
# Total concentration of the transiently expressed antibody was determined by a turbidimetric test. One mL cell suspension was transferred into an Eppendorf cup and centrifuged for 10 min. at 10,000 rpm (9,300 g).
# HDAC [4] = conditions: description from the literature; cited from earlier work
# HEK293F cells [5] = experiment: Transient gene expression in HEK293F cells: IgG concentration / titer (turbidimetric test); assay type: cell-based, human; conditions: for relative IgG concentration / relative titer: none=100
# Protocol: as §2, §3, §4, §5, §6
# Total concentration of the transiently expressed antibody was determined by a turbidimetric test. One mL cell suspension was transferred into an Eppendorf cup and centrifuged for 10 min. at 10,000 rpm (9,300 g). The supernatant was transferred into a new cup and subjected to Cobas Integra 400 plus (Roche) analysis. With comparison to internal standard the absolute concentration was calculated.
# [6] = Homo sapiens, HEK293F, 3 mM, single treatment, none=100, N=3, read-out: relative cell specific productivity
# [7] = Homo sapiens, HEK293F, 3 mM, transfected control=100, N=3, FIG. 3B, read-out: relative cell specific productivity
compound,measurement,setting,value
"CC/C=C(\C)C(=O)O [2M2P, trans-2-methyl 2-pentenoic acid]",toxicity (remark in titer cell),"HEK293F cells [1]; human, 11 mM",toxic
same,HDACi,HDAC [2],9.4%
same,HDAC inhibition,HDAC [2],no
same,cell specific productivity with BAY11-7082 addition compared to the single treatment,HEK293F cells [3],No reduction
same,protein expression yields compared to the negative control,"HEK293F cells [3]; 3 mM, in words",clearly increased
same,specific productivity after 96 hours,"HEK293F cells [3]; 3 mM, single treatment, N=3",2.40 pg/cell/day
same,activity at 3000 µM,"HEK293F cells [3]; Homo sapiens, HEK293F, 3 mM, 2M2P/Quisinostat combination study, none=100, N=3, read-out: relative cell specific productivity",169%
same,activity at 3000 µM,"HEK293F cells [3]; Homo sapiens, HEK293F, 3 mM, VPA/2M2P combination study, none=100, N=3, read-out: relative cell specific productivity",169%
same,activity at 3000 µM,"HEK293F cells [3]; Homo sapiens, HEK293F, 3 mM, none=100, N=3, FIG. 6A, read-out: relative cell specific productivity",131%
same,activity at 3000 µM,"HEK293F cells [3]; Homo sapiens, HEK293F, 3 mM, none=100, N=3, FIG. 9A, read-out: relative cell specific productivity",131%
same,activity at 3000 µM,HEK293F cells [3]; [6],144%
same,activity at 3000 µM,HEK293F cells [3]; [7],191%
same,activity at 2000 µM,"HEK293F cells [3]; Homo sapiens, HEK293F, employed concentration 2 mM, none=100, N=2, FIG. 4, read-out: relative cell specific productivity",123%
same,activity at 3000 µM,"HEK293F cells [3]; Homo sapiens, HEK293F, employed concentration 3 mM, none=100, N=2, FIG. 4, read-out: relative cell specific productivity",196%
same,Mean cell specific productivity,HEK293F cells [3],5.4 (3 mM) pg/cell/24 h
same,HDAC inhibitory activity,HDAC [4],very weak to no HDAC inhibitory activity
same,relative IgG concentration,"HEK293F cells [5]; 3 mM, 2M2P/Quisinostat combination study, N=3",146%
same,relative IgG concentration,"HEK293F cells [5]; 3 mM, VPA/2M2P combination study, N=3",146%
same,relative IgG concentration,"HEK293F cells [5]; 3 mM, N=3, FIG. 6B",128%
same,relative IgG concentration,"HEK293F cells [5]; 3 mM, N=3, FIG. 9B",128%
same,relative titer,"HEK293F cells [5]; 2M2P concentration 3 mM, N=2",165%
same,relative titer,"HEK293F cells [5]; 2M2P concentration 6 mM, N=2",257%
same,relative titer,"HEK293F cells [5]; 2M2P concentration 7 mM, N=2",258%
same,relative titer,"HEK293F cells [5]; 2M2P concentration 8 mM, N=2",172%
same,relative titer,"HEK293F cells [5]; 2M2P concentration 9 mM, N=2",120%
same,relative titer,"HEK293F cells [5]; 2M2P concentration 10 mM, N=2",42%
same,relative titer,"HEK293F cells [5]; 2M2P concentration 11 mM, N=2",0%
"CCCC(CCC)C(=O)O [valproic acid, 2-propylpentanoic acid]",growth inhibition and cell death,HEK293F cells [1]; in contrast to other HDACi tested,induce growth inhibition and cell death
same,HDACi,HDAC [2],58%
same,HDAC inhibition,HDAC [2],yes
same,cell specific productivity with BAY11-7082 addition compared to the single treatment,HEK293F cells [3],significantly reduced
same,specific productivity after 96 hours,"HEK293F cells [3]; 3 mM, single treatment, N=3",4.92 pg/cell/day
same,activity at 500 µM,"HEK293F cells [3]; Homo sapiens, HEK293F, 0.5 mM, sole enhancer, control=100, N=2, FIG. 1, read-out: relative cell specific productivity",184%
same,activity at 1000 µM,"HEK293F cells [3]; Homo sapiens, HEK293F, 1 mM, sole enhancer, control=100, N=2, FIG. 1, read-out: relative cell specific productivity",204%
same,activity at 2000 µM,"HEK293F cells [3]; Homo sapiens, HEK293F, 2 mM, VPA/2M2P combination study, none=100, N=3, read-out: relative cell specific productivity",278%
same,activity at 2000 µM,"HEK293F cells [3]; Homo sapiens, HEK293F, 2 mM, VPA/Quisinostat combination study, none=100, N=3, read-out: relative cell specific productivity",278%
same,activity at 2000 µM,"HEK293F cells [3]; Homo sapiens, HEK293F, 2 mM, sole enhancer, control=100, N=2, FIG. 1, read-out: relative cell specific productivity",246%
same,activity at 3000 µM,HEK293F cells [3]; [6],237%
same,activity at 3000 µM,"HEK293F cells [3]; Homo sapiens, HEK293F, 3 mM, sole enhancer, control=100, N=2, FIG. 1, read-out: relative cell specific productivity",284%
same,activity at 3000 µM,HEK293F cells [3]; [7],316%
same,activity at 4000 µM,"HEK293F cells [3]; Homo sapiens, HEK293F, 4 mM, sole enhancer, control=100, N=2, FIG. 1, read-out: relative cell specific productivity",273%
same,activity at 6000 µM,"HEK293F cells [3]; Homo sapiens, HEK293F, 6 mM, sole enhancer, control=100, N=2, FIG. 1, read-out: relative cell specific productivity",223%
same,activity at 4000 µM,"HEK293F cells [3]; Homo sapiens, HEK293F, employed concentration 4 mM, none=100, N=2, FIG. 2B, read-out: relative cell specific productivity",326%
same,activity at 4000 µM,"HEK293F cells [3]; Homo sapiens, HEK293F, employed concentration 4 mM, none=100, N=2, FIG. 4, read-out: relative cell specific productivity",315%
same,Mean cell specific productivity,HEK293F cells [3],5.4 (3 mM) pg/cell/24 h
same,Effect on titer/SPR,"HEK293F cells [3]; summary table, in words",strong
same,relative IgG concentration,"HEK293F cells [5]; 2 mM, VPA/2M2P combination study, N=3",217%
same,relative IgG concentration,"HEK293F cells [5]; 2 mM, VPA/Quisinostat combination study, N=3",217%
same,final titer,"HEK293F cells [5]; 3 mM, none 39.8, N=3",68.8 mg/L
same,relative titer,"HEK293F cells [5]; 3 mM, N=1",188%
same,relative IgG concentration,"HEK293F cells [5]; 4 mM, N=3, FIG. 6B",173%
same,relative IgG concentration,"HEK293F cells [5]; 4 mM, N=3, FIG. 8B",173%
same,relative IgG concentration,"HEK293F cells [5]; 4 mM, N=3, FIG. 9B",173%
